Series [1] in a line: Paramagnetic relaxation properties in water at 10 MHz (0.15T), RADX spin analyzer. The series is classed as physicochemical. As to conditions: for spin-lattice (T₁) relaxation value / spin-spin (T₂) relaxation value / millimolar relaxivity for T₁ / millimolar relaxivity for T₂ / Relaxivity (mM⁻¹sec⁻¹) Spin-Lattice / Relaxivity (mM⁻¹sec⁻¹) Spin-Spin: 10 MHz (0.15T); for millimolar relaxivity for T₁ / millimolar relaxivity for T₂: in water; for millimolar relaxivity for T₁: calculated from T₁ and concentration; for millimolar relaxivity for T₂: calculated from T₂ and concentration; for Spin-Spin Relaxivity: 0.15 T (10 MHz). The protocol:
The paramagnetic relaxation properties of [manganese(II)·(H₂O)₂·(L-alanine)₂]⁺²(Cl₂)⁻² in water were measured at 10 MHz (0.15T) with a spin analyzer (RADX; Houston, TX) at 37°C. After thermal equilibrium, the spin-lattice (T₁) and spin-spin (T₂) relaxation values were measured in triplicate.
The paramagnetic relaxation of the title compound in water was measured at 10 MHz (0.15T) with a spin analyzer (RADX; Houston, TX). After thermal equilibrium, the spin-lattice (T₁) and spin-spin (T₂) relaxation values were measured.
Relaxivity was measured at 10 MHz (0.15T) as described in Example 10.
The relaxivity of the title compound was performed at 0.15 T (10 MHz) with a RADX Spin Analyzer (Houston, TX) at 37°C.

Series [2] can be described thus: Paramagnetic relaxation properties in human plasma at 37°C. The series is classed as physicochemical. Particulars: for T₂ value / T₁ value / R₁ / R₂ / T₁ changed by (repeat measurement) / T₂ changed by (repeat measurement): 37°C; for T₁ value: triplicate; for T₁ changed by (repeat measurement) / T₂ changed by (repeat measurement): repeat measurement 80 minutes later; for T₂ relaxivity in plasma, fold greater than GdDTPA: versus GdDTPA; for T₁ relaxivity in plasma, fold greater than GdDTPA: versus gadolinium diethylenetriaminepentaacetic acid chelate (GdDTPA).

The mark [3] stands for this setting: 0.94 mM solution in water, 37°C, triplicate, mean +/- SD.
Setting [4] is: 0.90 mM solution in water, 37°C, triplicate, mean +/- SD.
Setting [5] is: 0.97 mM solution in water, 37°C, triplicate, mean +/- SD.
Where [6] appears, read: 0.98 mM solution in water, 37°C, triplicate, mean +/- SD.

The text below walks through data of patent publication EP0308983A2, “NMR imaging with Mn(II) coordination compositions” (priority 1987, dated 1989).

Regarding `NC(=O)C[C@H]([NH3+])C(=O)[O-].NC(=O)C[C@H]([NH3+])C(=O)[O-].O.O.[Cl-].[Cl-].[Mn+2]` [Manganese(II)·(H₂O)₂·(L-asparginine)₂]⁺²(Cl₂)⁻²], in series [1] (setting [3]), the “spin-lattice (T₁) relaxation value” was 117 ± 5 ms and the “spin-spin (T₂) relaxation value” stood at 29 ± 1 ms. Moreover, in series [1], the “millimolar relaxivity for T₁” value was 9.09 mM⁻¹ s⁻¹ and the “millimolar relaxivity for T₂” value is 36.7 mM⁻¹ s⁻¹. In series [2] (90 µM final concentration), this compound showed a T₂ value of 190 ± 3 ms and a T₁ value of 244 ± 20 ms. For the same compound, in series [2], the R₁ was 45.5 mM⁻¹ s⁻¹, the R₂ stood at 58.5 mM⁻¹ s⁻¹, the “T₁ changed by (repeat measurement)” value worked out at 7% and the “T₂ changed by (repeat measurement)” value came out at 2%. In addition, in series [2], the “T₂ relaxivity in plasma, fold greater than GdDTPA” value is listed as 12.2 fold and the “T₁ relaxivity in plasma, fold greater than GdDTPA” value was determined as 9.5 fold.
Consider `N[C@@H](CC(=O)O)C(=O)O.N[C@@H](CC(=O)O)C(=O)O.O.O.[Cl-].[Cl-].[Mn+2]` [Manganese(II)·(H₂O)₂·(L-aspartic acid)₂]⁺²(Cl₂)⁻²], for which, in series [1] (setting [4]), the “spin-lattice (T₁) relaxation value” was determined as 116 ± 3 ms and the “spin-spin (T₂) relaxation value” was 28 ± 1 ms. Further, in series [1], the “millimolar relaxivity for T₁” value is 9.58 mM⁻¹ s⁻¹ and the “millimolar relaxivity for T₂” value was 39.7 mM⁻¹ s⁻¹. In series [2] (86 µM final concentration), the T₂ value was found to be 190 ± 12 ms and the T₁ value was 251 ± 12 ms. Besides, in series [2], the R₁ was determined as 46.3 mM⁻¹ s⁻¹, the R₂ was 61.2 mM⁻¹ s⁻¹, the “T₁ changed by (repeat measurement)” value is “did not change” and the “T₂ changed by (repeat measurement)” value came out at 3%. Moreover, in series [2], the “T₂ relaxivity in plasma, fold greater than GdDTPA” value was found to be 12.8 fold and the “T₁ relaxivity in plasma, fold greater than GdDTPA” value came to 9.7 fold.
`N[C@@H](CS)C(=O)O.N[C@@H](CS)C(=O)O.O.O.[Cl-].[Cl-].[Mn+2]` [Manganese(II)·(H₂O)₂·(L-cysteine)₂]⁺²(Cl₂)⁻²]: in series [1] (setting [5]), the “spin-lattice (T₁) relaxation value” is 105 ± 4 ms and the “spin-spin (T₂) relaxation value” turned out to be 25 ± 1 ms. For the same compound, in series [1], the “millimolar relaxivity for T₁” value was 9.82 mM⁻¹ s⁻¹ and the “millimolar relaxivity for T₂” value was 41.2 mM⁻¹ s⁻¹. In series [2] (92 µM final concentration), this compound had a T₂ value of 190 ± 17 ms and a T₁ value of 247 ± 14 ms. Further, in series [2], the R₁ was found to be 44.0 mM⁻¹ s⁻¹, the R₂ worked out at 57.2 mM⁻¹ s⁻¹, the “T₁ changed by (repeat measurement)” value is recorded as 4% and the “T₂ changed by (repeat measurement)” value is listed as 1%. In series [2], the “T₂ relaxivity in plasma, fold greater than GdDTPA” value came out at 11.9 fold and the “T₁ relaxivity in plasma, fold greater than GdDTPA” value was determined as 9.2 fold.
Regarding `NCCCC[C@H](N)C(=O)O.NCCCC[C@H](N)C(=O)O.O.O.[Cl-].[Cl-].[Mn+2]` [Manganese(II)·(H₂O)₂·(L-lysine)₂]⁺²(Cl₂)⁻²], in series [1] (setting [5]), the “spin-lattice (T₁) relaxation value” turned out to be 108 ± 9 ms and the “spin-spin (T₂) relaxation value” was 26 ± 1 ms. In series [1], the “millimolar relaxivity for T₁” value is 9.55 mM⁻¹ s⁻¹ and the “millimolar relaxivity for T₂” value is 39.7 mM⁻¹ s⁻¹. In series [2] (92 µM final concentration), the T₂ value turned out to be 192 ± 8 ms and the T₁ value came out at 230 ± 9 ms. Besides, in series [2], the R₁ was 47.3 mM⁻¹ s⁻¹, the R₂ was 56.6 mM⁻¹ s⁻¹, the “T₁ changed by (repeat measurement)” value stood at 3% and the “T₂ changed by (repeat measurement)” value is recorded as 3%. Further, in series [2], the “T₂ relaxivity in plasma, fold greater than GdDTPA” value stood at 11.8 fold and the “T₁ relaxivity in plasma, fold greater than GdDTPA” value was determined as 9.9 fold.
`CSCC[C@H](N)C(=O)O.CSCC[C@H](N)C(=O)O.O.O.[Cl-].[Cl-].[Mn+2]` [Manganese(II)·(H₂O)₂·(L-methionine)₂]⁺²(Cl₂)⁻²]: in series [1] (setting [5]), the “spin-lattice (T₁) relaxation value” was found to be 106 ± 2 ms and the “spin-spin (T₂) relaxation value” turned out to be 27 ± 1 ms. Moreover, in series [1], the “millimolar relaxivity for T₁” value was 9.73 mM⁻¹ s⁻¹ and the “millimolar relaxivity for T₂” value was 38.2 mM⁻¹ s⁻¹. In series [2] (92 µM final concentration), this compound had a T₂ value of 202 ± 9 ms and a T₁ value of 257 ± 18 ms. Besides, in series [2], the R₁ was 42.3 mM⁻¹ s⁻¹, the R₂ was determined as 52.8 mM⁻¹ s⁻¹, the “T₁ changed by (repeat measurement)” value was determined as 1% and the “T₂ changed by (repeat measurement)” value worked out at 5%. In series [2], the “T₂ relaxivity in plasma, fold greater than GdDTPA” value is recorded as 11.2 fold and the “T₁ relaxivity in plasma, fold greater than GdDTPA” value came out at 8.8 fold.
`O.O.O=C(O)[C@@H]1CCCN1.O=C(O)[C@@H]1CCCN1.[Cl-].[Cl-].[Mn+2]` [Manganese(II)·(H₂O)₂·(L-proline)₂]⁺²(Cl₂)⁻²]: in series [1] (setting [6]), the “spin-lattice (T₁) relaxation value” was 106 ± 4 ms and the “spin-spin (T₂) relaxation value” turned out to be 26 ± 2 ms. In addition, in series [1], the “millimolar relaxivity for T₁” value is 9.63 mM⁻¹ s⁻¹ and the “millimolar relaxivity for T₂” value was 39.3 mM⁻¹ s⁻¹. Besides, in series [2] (93 µM final concentration), the T₂ value amounted to 202 ± 12 ms and the T₁ value was 234 ± 12 ms. Moreover, in series [2], the R₁ is 46.5 mM⁻¹ s⁻¹, the R₂ turned out to be 53.2 mM⁻¹ s⁻¹, the “T₁ changed by (repeat measurement)” value was determined as 5% and the “T₂ changed by (repeat measurement)” value was 12%. In series [2], the “T₂ relaxivity in plasma, fold greater than GdDTPA” value stood at 11.1 fold and the “T₁ relaxivity in plasma, fold greater than GdDTPA” value was 9.7 fold.
Turning to `C[NH2+]CC(=O)[O-].C[NH2+]CC(=O)[O-].O.O.[Cl-].[Cl-].[Mn+2]` [Manganese(II)·(H₂O)₂·(L-sarcosine)₂]⁺²(Cl₂)⁻²], in series [1] (setting [6]), the “spin-lattice (T₁) relaxation value” stood at 111 ± 2 ms and the “spin-spin (T₂) relaxation value” was 26 ± 1 ms. Also, in series [1], the “millimolar relaxivity for T₁” value was 9.19 mM⁻¹ s⁻¹ and the “millimolar relaxivity for T₂” value is 39.3 mM⁻¹ s⁻¹. In series [2] (93 µM final concentration), this compound had a T₂ value of 194 ± 16 ms and a T₁ value of 232 ± 2 ms. Further, in series [2], the R₁ came to 46.4 mM⁻¹ s⁻¹, the R₂ is 55.4 mM⁻¹ s⁻¹, the “T₁ changed by (repeat measurement)” value is recorded as 6% and the “T₂ changed by (repeat measurement)” value is listed as 4%. Moreover, in series [2], the “T₂ relaxivity in plasma, fold greater than GdDTPA” value is 11.5 fold and the “T₁ relaxivity in plasma, fold greater than GdDTPA” value was determined as 9.7 fold.
Take `NC(CO)C(=O)O.O.O.O.O=C([O-])C(O)C(O)C(O)C(O)CO.O=C([O-])C(O)C(O)C(O)C(O)CO.[Mn+2]` [[Manganese(II)(H₂O)₃-L-Serine]Digluconate]: in series [1] (1 mM solution in water), the “spin-lattice (T₁) relaxation value” turned out to be 107 ms and the “spin-spin (T₂) relaxation value” amounted to 27 ms. In series [1], the “millimolar relaxivity for T₁” value was 9.35 mM⁻¹ s⁻¹ and the “millimolar relaxivity for T₂” value was 37.0 mM⁻¹ s⁻¹.
On to `CC(=O)[O-].C[C@H](N)C(=O)O.C[C@H](N)C(=O)O.C[C@H](N)C(=O)O.O.[I-].[Mn+2]` [[Manganese(II)H₂O(L-Alanine)₃](Acetate Iodide)], for which, in series [1] (1 mM solution in water), the “spin-lattice (T₁) relaxation value” was 104 ms and the “spin-spin (T₂) relaxation value” came to 26 ms. For the same compound, in series [1], the “millimolar relaxivity for T₁” value was 9.62 mM⁻¹ s⁻¹ and the “millimolar relaxivity for T₂” value was 38.5 mM⁻¹ s⁻¹.
With `CC(=O)[O-].CC(=O)[O-].NCC(=O)O.NCC(=O)O.NCC(=O)O.NCC(=O)O.[Mn+2]` [[Manganese(II)·(Glycine)₄]Diacetate], in series [1] (1 mM solution in water), the “Relaxivity (mM⁻¹sec⁻¹) Spin-Lattice” value was determined as 8.00 mM⁻¹ s⁻¹ and the “Relaxivity (mM⁻¹sec⁻¹) Spin-Spin” value was 33.3 mM⁻¹ s⁻¹.
As to `CC(=O)[O-].CC(=O)[O-].NCC(=O)O.NCC(=O)O.NCC(=O)O.O.[Mn+2]` [[Manganese(II)·(H₂O)·(Glycine)₃]Diacetate], in series [1] (1 mM solution in water), the “Relaxivity (mM⁻¹sec⁻¹) Spin-Lattice” value turned out to be 8.47 mM⁻¹ s⁻¹ and the “Relaxivity (mM⁻¹sec⁻¹) Spin-Spin” value came to 33.3 mM⁻¹ s⁻¹.
Turning to `CC(=O)[O-].CC(=O)[O-].NCC(=O)O.O.O.O.[Mn+2]` [[Manganese(II)·(H₂O)₃]·(Glycine)]Diacetate], in series [1] (1 mM solution in water), the “Relaxivity (mM⁻¹sec⁻¹) Spin-Lattice” value worked out at 8.26 mM⁻¹ s⁻¹ and the “Relaxivity (mM⁻¹sec⁻¹) Spin-Spin” value turned out to be 33.3 mM⁻¹ s⁻¹. Moreover, in series [1] (37°C), the “Spin-Spin Relaxivity” value is 33.30 mM⁻¹ s⁻¹.
Take `CC(=O)[O-].CC(=O)[O-].O.O.O.O.[Mn+2]` [[Manganese(II)·(H₂O)₄]Diacetate, reference compound]: in series [1] (1 mM solution in water), the “Relaxivity (mM⁻¹sec⁻¹) Spin-Lattice” value came to 9.09 mM⁻¹ s⁻¹ and the “Relaxivity (mM⁻¹sec⁻¹) Spin-Spin” value amounted to 33.3 mM⁻¹ s⁻¹. Moreover, the “Spin-Spin Relaxivity” value in series [1] (37°C) turned out to be 33.30 mM⁻¹ s⁻¹.
`NCC(=O)[O-].NCC(=O)[O-].O.O.O.O.O.O.O=S(=O)([O-])[O-].[Mn+2].[Mn+2]` [[Manganese(II)·CH₂(NH₂)COO-]₂⁺¹(SO₄^=), reference compound]: in series [1] (37°C), the “Spin-Spin Relaxivity” value was 2.92 mM⁻¹ s⁻¹.
For the compound `NCC(=O)O.N[C@@H](CO)C(=O)O.N[C@@H](Cc1c[nH]cn1)C(=O)O.O=C(O)[C@@H]1CCCN1.O=S(=O)([O-])[O-].[Mn+2]` [[Manganese(II)·Glycine·L-Serine·L-Histidine·L-Proline](Sulfate)], in series [1] (1 mM solution in water), the “spin-lattice (T₁) relaxation value” is 103 ms and the “spin-spin (T₂) relaxation value” came to 28 ms. For the same compound, in series [1], the “millimolar relaxivity for T₁” value was 9.71 mM⁻¹ s⁻¹ and the “millimolar relaxivity for T₂” value was 35.7 mM⁻¹ s⁻¹.
For the compound “[Manganese(II)(H₂O)₂(L-serine)₂](Glycerophosphate)”, in series [1] (1 mM solution in water), the “spin-lattice (T₁) relaxation value” came to 147 ms and the “spin-spin (T₂) relaxation value” stood at 54 ms. In addition, in series [1], the “millimolar relaxivity for T₁” value is 6.80 mM⁻¹ s⁻¹ and the “millimolar relaxivity for T₂” value is 18.5 mM⁻¹ s⁻¹.
